Data taken from article PMC10339131, “Characterization of two bacterial multi-flavinylated proteins harboring multiple covalent flavin cofactors” (BBA Advances, 2023).

Assays:
[1] = biological target: T1, SaFMN3 (Streptomyces azureus, UniProt A0A0K8PVQ4); test: ESI-MS of intact protein; TCA precipitation; UV-visible spectrum; format: binding; details: covalent; three FMN sites, threonyl phosphoester; attached by co-expressed ApbE
T1 construct: gene SAZU_6878; N-terminal residues 1-48 (signal/membrane anchor) removed; His6-SUMO fusion, cleaved; E. coli BL21-AI with ApbE and CaFADS; mainly monomer; three FMN domains
T1 sequence (A0A0K8PVQ4 49-352): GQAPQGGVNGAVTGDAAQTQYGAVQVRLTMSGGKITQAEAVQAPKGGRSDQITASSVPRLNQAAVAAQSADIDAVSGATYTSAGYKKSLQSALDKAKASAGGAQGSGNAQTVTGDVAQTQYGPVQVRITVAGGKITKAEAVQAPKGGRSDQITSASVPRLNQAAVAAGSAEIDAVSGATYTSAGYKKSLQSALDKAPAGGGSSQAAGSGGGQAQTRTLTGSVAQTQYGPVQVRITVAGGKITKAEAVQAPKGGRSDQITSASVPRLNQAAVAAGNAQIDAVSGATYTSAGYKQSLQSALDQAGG

[2] = biological target: T2, CbFMN4-D1 (Clostridiaceae bacterium, UniProt Z9KOB2RJF1); test: X-ray crystal structure, […] A; format: binding; details: covalent; bound via Thr67 (domain numbering); attached by co-expressed ApbE
T2 construct: expressed in E. coli BL21-AI with ApbE and CaFADS; SUMO cleaved; two molecules per asymmetric unit from crystal packing
T2 sequence (Z9KOB2RJF1 1-85): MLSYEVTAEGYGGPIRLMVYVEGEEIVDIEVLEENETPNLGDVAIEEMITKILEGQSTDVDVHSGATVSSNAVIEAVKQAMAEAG

Cc1cc2nc3c(=O)[nH]c(=O)nc-3n(C[C@H](O)[C@H](O)[C@H](O)COP(=O)(O)O)c2cc1C [FMN]
ESI-MS of intact protein; TCA precipitation; UV-visible spectrum [1]: exactly corresponds to the predicted mass of fully flavinylated SaFMN3 | X-ray crystal structure, 2.60 A [2]: Both CbFMN4-D1 molecules have a covalently bound FMN via Thr67.
